From patent US20240199552A1, “AMIDE COMPOUND AND USE THEREOF” (Metisa Biotechnology Co., Ltd, priority 2021, published 2024)
Like-named read-outs stand apart in the source and are kept apart here.

Assays:
Type in all cases: in vivo
Mythimna separata = test: Insecticidal activity against Mythimna separata, Airbrush spray on maize leaf pieces; conditions: 72 h, 0.05 mg/L, 3 days after the administration, 3rd-instar larvae, read-out: mortality rate against Mythimna separata
Experimental: (§1) After the compound to be determined was dissolved in a mixed solvent of acetone/methanol (1:1), it was diluted with water containing 0.1% (wt) Tween-80 to a desired concentration.
(§2) Mythimna separata, Diamondback moth, Chilo suppressalis, Spodoptera exigua, Myzus persicae, and Franklinella occidentalis were used as targets, and the activity was tested by an Airbrush spray method.
Determination method: maize leaves were cut into 2 cm leaf pieces, and the front and back of each leaf piece were sprayed under an Airbrush spray treatment pressure of 10 psi (approximate to 0.7 kg/cm^2) and with a spray volume of 0.5 mL. After drying in the shade, 10 3rd-instar larvae were inoculated for each treatment, and each treatment was repeated for 3 times. After the treatment, the leaf pieces were put into an observation chamber at 25° C. and with a relative humidity of 60% to 70%, and the number of living larvae was investigated 3 days after the administration of the compounds, and the mortality rates were calculated.

Diamondback moth = test: Insecticidal activity against Diamondback moth, Airbrush spray on cabbage leaf discs; conditions: Plutella xylostella, foliar, 72 h; for mortality at 1.25 µg/mL: 1.25 mg/L, 3rd-instar larvae, read-out: mortality rate against Diamondback moth; for mortality at 10 µg/mL: 10 mg/L, read-out: Mortality rate (%, 3 days after the administration) 10 mg/L; for mortality at 0.156 µg/mL: read-out: Mortality rate (%, 3 days after the administration) 0.156 mg/L; for mortality at 0.313 µg/mL: read-out: Mortality rate (%, 3 days after the administration) 0.313 mg/L
Experimental: as §1, §2
Determination method: cabbage leaves were formed into leaf discs having a diameter of 2 cm using a puncher, and the front and back of each leaf disc were sprayed under an Airbrush spray treatment pressure of 10 psi (approximate to 0.7 kg/cm^2) and with a spray volume of 0.5 mL. After drying in the shade, 10 3rd-instar larvae were inoculated for each treatment, and each treatment was repeated for 3 times. After the treatment, the leaf discs were placed into an observation chamber at 25° C. and with a relative humidity of 60% to 70%, and the number of living larvae was investigated 3 days after the administration of the compounds, and the mortality rates were calculated.

Chilo suppressalis = test: Insecticidal activity against Chilo suppressalis, sprayed rice stems; conditions: 72 h, 0.625 mg/L, 3 days after the administration, 3rd-instar larvae, read-out: mortality rate against Chilo suppressalis
Experimental: as §1, §2
Determination method: 1) Preparation of rice seedlings: rice was cultured in a plastic small cup with a diameter of 4.5 cm and a height of 4 cm in a constant temperature room (the temperature was 26-28° C., the relative humidity was about 60-80%, and the illumination was 16hL:8hD), when the rice grown to a 4-5 leaf stage, robust and uniformly grown rice seedlings were selected for pharmaceutical treatment, and 3 replicates were set for each treatment. 2) Preparation of test insects: 3rd-instar larvae of Chilo suppressalis were continuously reared indoors. 3) Rice stems were sprayed and insects were introduced. A spray method was used to treat whole rice seedlings with uniform spray, and each treatment was 15 mL. Blank controls were treated firstly, and then the above operation was repeated in an order of experimental concentrations from low to high. After the spray treatment of the rice seedlings, they were placed in the shade to air-dry drug liquid, about 5 cm of the stem from a basal part of the stem was cut and fed to the test insects. A glass culture dish with a diameter of 90 mm was prepared, filter paper was placed on the bottom of the dish, then water was added to moisturize. About 5 rice stems were placed in each dish, 10 larvae were introduced, and the culture dish was closed with non-woven fabric and placed in the constant-temperature room for culture. 3 days after the administration, the number of residual live insects was investigated.

Spodoptera exigua = test: Insecticidal activity against Spodoptera exigua, leaf disc dipping feeding method; conditions: foliar, 72 h, 0.625 mg/L, 3 days after the administration, read-out: mortality rate against Spodoptera exigua
Experimental: After the compound to be determined was dissolved in a mixed solvent of acetone/methanol (1:1), it was diluted with water containing 0.1% (wt) Tween-80 to a desired concentration. […]
Determination method: the activity was tested by using a leaf disc dipping feeding method. Leaf discs were dipped in a drug solution for 10 s, and placed in a culture dish after being air-dried, there were 4 discs in each dish, and a filter paper was placed in the culture dish for moisture retention. 10 test insects of Spodoptera exigua were introduced to each dish, with 3 replicates.
They were placed in a light incubator for culture at a temperature of 25° C. and an illumination of 14hL:10hD. On the 1st, 2nd, and 3rd day after the administration, the number of dead Spodoptera exigua was investigated and the mortality rate was calculated.

Myzus persicae = test: Insecticidal activity against Myzus persicae, Airbrush spray on cabbage leaves; conditions: 50 mg/L, after 48 h, read-out: mortality rate against Myzus persicae
Experimental: as §1, §2
Determination method: a culture dish with a diameter of 6 cm was taken, the bottom of the dish was covered by a layer of filter paper, and an appropriate amount of tap water was added to moisturize the paper. Cabbage leaves with an appropriate size (the diameter was about 3 cm) and 15-30 aphids grown were cut from cabbage plants used to culture Myzus persicae, winged aphids and aphids on the front of the leave were removed, and it was placed in the culture dish while the back of the leave was upward. The pressure of airbrush spray treatment was 10 psi (about 0.7 kg/cm^2), the liquid spray volume was 0.5 mL, and there were 3 replicates for each treatment. After the treatment, the leave was put into an observation room for culture at 25° C. and a relative humidity of 60-70%. After 48 h, the number of live insects was investigated and the mortality rate was calculated.

cat flea = test: Insecticidal experiment on cat flea, thin film in culture dish; conditions: Ctenocephalides felis, 72 h, read-out: mortality rate, cat flea
Experimental: 4 mg of the compound to be determined was dissolved in 40 mL of acetone to obtain an acetone solution with a concentration of 100 mg/L. 400 μL of the drug solution was applied on the bottom and sides of a culture dish with an inner diameter of 5.3 cm, then after acetone was evaporated, a thin film of the compound of the present invention was made on the inner wall of the culture dish. The inner wall of the culture dish used was 40 cm^2, and the treatment dosage was 1 μg/cm^2. 10 adult cat fleas (mixed male and female) were put into the dish, and it was stored in a constant-temperature room at 25° C. after being covered. The number of dead insects after 72 h was checked and the mortality rate was calculated. The experiment was repeated for 3 times.

[1] = system: Franklinella occidentalis; test: Insecticidal activity against Franklinella occidentalis nymphs, sprayed bean leaves
Experimental: as §1, §2
Determination method: fresh bean leaves cultivated in a greenhouse were selected, a hand-held Airbrush sprayer was used to spray uniformly, each treatment was 1 mL, and after being air-dried naturally, the leaves were placed in a finger-shaped tube. Neat and healthy Franklinella occidentalis nymphs were introduced, there were 15 nymphs for each treatment, 3 replicates were set for the experiment, and water treatment was set as a blank control. After the treatment, the leaves were put into an indoor culture room for culture at 24° C., a relative humidity of 60-70%, and natural light. After 72 h, the number of live insects was investigated and the mortality rate was calculated.

[2] = 3 days after the administration
[3] = 3 days after the administration, Diamondback moth
[4] = 0.156 mg/L, 3 days after the administration, Diamondback moth
[5] = 0.313 mg/L, 3 days after the administration, Diamondback moth

Compound	mortality at 0.05 µg/mL (Mythimna separata)	mortality at 1.25 µg/mL (Diamondback moth; [2])	mortality at 10 µg/mL (Diamondback moth; [3])	mortality at 0.625 µg/mL (Chilo suppressalis)	mortality at 0.625 µg/mL (Spodoptera exigua)	mortality at 50 µg/mL (Myzus persicae)	mortality at 1 µg/cm2 (cat flea)	Mortality rate (%, 3 days after the administration) 10 mg/L [1]	Mortality rate (%, 3 days after the administration) 100 mg/L [1]	further results
C=CCN(C(=O)c1ccccc1)c1cccc(C(=O)Nc2c(I)cc(C(F)(C(F)(F)F)C(F)(F)F)cc2C(F)(F)F)c1F [Compound 4]	> 90%	> 90%	100%	> 90%	> 90%	> 90%	> 90%	–	–	–
C=CCN(C(=O)c1ccc(C#N)cc1)c1cccc(C(=O)Nc2c(Br)cc(C(F)(C(F)(F)F)C(F)(F)F)cc2C(F)(F)F)c1F [Compound 11]	> 90%	> 90%	100%	> 90%	> 90%	> 90%	> 90%	–	–	–
C=CCN(C(=O)c1ccc(C#N)cc1)c1cccc(C(=O)Nc2c(I)cc(C(F)(C(F)(F)F)C(F)(F)F)cc2C(F)(F)F)c1F [Compound 12]	> 90%	> 90%	100%	> 90%	> 90%	> 90%	> 90%	–	–	–
C=CCN(C(=O)c1ccc(C#N)nc1)c1cccc(C(=O)Nc2c(Br)cc(C(F)(C(F)(F)F)C(F)(F)F)cc2C(F)(F)F)c1F [Compound 23]	> 90%	> 90%	100%	> 90%	> 90%	> 90%	> 90%	–	–	–
C=CCN(C(=O)c1ccc(C#N)nc1)c1cccc(C(=O)Nc2c(I)cc(C(F)(C(F)(F)F)C(F)(F)F)cc2C(F)(F)F)c1F [Compound 24]	> 90%	> 90%	100%	> 90%	> 90%	> 90%	> 90%	–	–	–
C=CCN(C(=O)c1ccc(C(F)(F)F)nc1)c1cccc(C(=O)Nc2c(Br)cc(C(F)(C(F)(F)F)C(F)(F)F)cc2C(F)(F)F)c1F [Compound 27]	> 90%	> 90%	100%	> 90%	> 90%	> 90%	> 90%	–	–	–
C=CCN(C(=O)c1ccc(C(F)(F)F)nc1)c1cccc(C(=O)Nc2c(I)cc(C(F)(C(F)(F)F)C(F)(F)F)cc2C(F)(F)F)c1F [Compound 28]	> 90%	> 90%	100%	> 90%	> 90%	> 90%	> 90%	–	–	–
C=CCN(C(=O)c1ccccc1)c1cccc(C(=O)Nc2c(C)cc(C(F)(C(F)(F)F)C(F)(F)F)cc2C)c1 [KC1, reference compound]	–	–	0%	–	–	–	–	–	–	–
C#CCN(C(=O)c1ccccc1)c1cccc(C(=O)Nc2c(C)cc(C(F)(C(F)(F)F)C(F)(F)F)cc2C)c1 [KC2, reference compound]	–	–	0%	–	–	–	–	–	–	–
CN(C(=O)c1ccccc1)c1cccc(C(=O)Nc2c(Br)cc(C(F)(C(F)(F)F)C(F)(F)F)cc2C(F)(F)F)c1F [KC3, broflanilide, reference compound]	–	–	–	–	–	–	–	31.11%	57.78%	mortality at 0.156 µg/mL (Diamondback moth): 50%; mortality at 0.313 µg/mL (Diamondback moth): 93.3%
CN(C(=O)c1ccc(F)cc1)c1cccc(C(=O)Nc2c(Br)cc(C(F)(C(F)(F)F)C(F)(F)F)cc2C(F)(F)F)c1F [KC4, reference compound]	–	–	–	–	–	–	–	40.00%	62.22%	mortality at 0.156 µg/mL (Diamondback moth; [4]): 60%; mortality at 0.313 µg/mL (Diamondback moth; [5]): 100%
CN(C(=O)c1ccc(F)cc1)c1cccc(C(=O)Nc2c(I)cc(C(F)(C(F)(F)F)C(F)(F)F)cc2C(F)(F)F)c1F [KC5, reference compound]	–	–	–	–	–	–	–	28.89%	51.11%	mortality at 0.156 µg/mL (Diamondback moth; [4]): 73.3%; mortality at 0.313 µg/mL (Diamondback moth; [5]): 100%
O=C(Nc1cccc(C(=O)Nc2c(I)cc(C(F)(C(F)(F)F)C(F)(F)F)cc2C(F)(F)F)c1F)c1ccc(F)nc1 [KC6, reference compound]	–	–	–	–	–	–	–	57.78%	77.78%	mortality at 0.156 µg/mL (Diamondback moth): 46.7%; mortality at 0.313 µg/mL (Diamondback moth): 90%
CN(C(=O)c1ccc(F)nc1)c1cccc(C(=O)Nc2c(Br)cc(C(F)(C(F)(F)F)C(F)(F)F)cc2C(F)(F)F)c1F [KC7, reference compound]	–	–	–	–	–	–	–	53.33%	80.00%	mortality at 0.156 µg/mL (Diamondback moth; [4]): 56.7%; mortality at 0.313 µg/mL (Diamondback moth; [5]): 100%
CN(C(=O)c1ccc(F)nc1)c1cccc(C(=O)Nc2c(I)cc(C(F)(C(F)(F)F)C(F)(F)F)cc2C(F)(F)F)c1F [KC8, reference compound]	–	–	–	–	–	–	–	53.33%	82.22%	mortality at 0.156 µg/mL (Diamondback moth; [4]): 53.3%; mortality at 0.313 µg/mL (Diamondback moth; [5]): 86.7%
C=CCN(C(=O)c1ccccc1)c1cccc(C(=O)Nc2c(C)cc(C(F)(C(F)(F)F)C(F)(F)F)cc2C)c1F [KC9, reference compound]	–	–	100%	–	–	–	–	–	–	–
C#CCN(C(=O)c1ccccc1)c1cccc(C(=O)Nc2c(C)cc(C(F)(C(F)(F)F)C(F)(F)F)cc2C)c1F [KC10, reference compound]	–	–	100%	–	–	–	–	–	–	–
